Several values for one entry are separate records, joined by “and”; a condition that tells them apart may be missing. Equal values may be shown once.
Biological target: T1, CETP (Homo sapiens, UniProt P11597)
T1 construct: from tissue; host or cells: human plasma from normal volunteers
T1 sequence (P11597 18-493): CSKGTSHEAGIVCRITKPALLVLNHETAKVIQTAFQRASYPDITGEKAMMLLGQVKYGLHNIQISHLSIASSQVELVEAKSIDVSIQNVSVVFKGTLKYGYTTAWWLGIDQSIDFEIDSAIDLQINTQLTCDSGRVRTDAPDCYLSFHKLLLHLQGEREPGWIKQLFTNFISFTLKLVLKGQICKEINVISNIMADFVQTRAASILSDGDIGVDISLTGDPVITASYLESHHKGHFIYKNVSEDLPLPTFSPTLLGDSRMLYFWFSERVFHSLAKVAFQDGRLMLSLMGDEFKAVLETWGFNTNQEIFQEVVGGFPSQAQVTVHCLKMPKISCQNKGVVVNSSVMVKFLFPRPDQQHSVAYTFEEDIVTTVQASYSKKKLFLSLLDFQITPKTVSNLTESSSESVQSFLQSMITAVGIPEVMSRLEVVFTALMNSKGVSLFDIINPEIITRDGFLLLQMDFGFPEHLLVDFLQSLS
Test: CETP in vitro assay (Amersham kit TRKQ7005; modified protocol in human plasma, [3H]CE-HDL transfer)
Type: biochemical
Settings: for % Inhibition @ 1 μM / inhibition at 1 µM: 1 μM compound; for inhibition at 1 µM: read-out: % Inhibition @ 1 μM; for IC50: from plots of % control versus compound concentration
Method: The CETP inhibitory activity of the compounds was determined using a commercially available kit from Amersham Biosciences (Catalog #TRKQ7005).
Briefly, 80 μl of human plasma (obtained from normal volunteers), approximately 25 μg/ml (20 μl) of [^3H]CE-HDL (Amersham Biosciences from kit TRKQ7005) and 1 μl of compound dissolved in DMSO was incubated for at least 4 hrs at 37° C. and non-specific transfer was determined by incubating a corresponding plate at 4° C. (blank). After the incubation period, 10 μl of a solution of 1% Dextralip 50/0.5M MgCl2, pH 7.4 was added, vortexed and incubated at room temperature for 10 min. The plate was then centrifuged for 30 min at 10° C. at 300 rpm in a Sorvall RT6000B centrifuge. Fifty microliters of the supernatant was transferred to a Picoplate (Packard) containing 100 μl of Microscint 40 (Perkin Elmer) and mixed for 30 min using a plate mixer. The radioactivity was counted using a TopCount (Perkin Elmer) and the % control was determined in the samples using the following formula: % transfer relative to vehicle controls (% control)=[cpm blank−cpm test]/cpm blank/cpm control]×100. IC50s were calculated from plots of the % control versus compound concentration.

Structure (SMILES)	% Inhibition @ 1 μM	inhibition at 1 µM	IC50
OC(CN1c2cccc(-c3cccc(OC(F)(F)F)c3)c2CCC1c1ccccc1OC(F)(F)C(F)F)C(F)(F)F (stereo not shown) [Compound 89, 1,1,1-Trifluoro-3-[2-[2-(1,1,2,2-tetrafluoro-ethoxy)-phenyl]-5-(3-trifluoromethoxy-phenyl)-3,4-dihydro-2H-quinolin-1-yl]-propan-2-ol]	9%		
OC(CN1c2cccc(-c3cccs3)c2CCC1c1cccc(OC(F)(F)C(F)F)c1)C(F)(F)F (stereo not shown) [Compound 75, 1,1,1-Trifluoro-3-{2-[3-(1,1,2,2-tetrafluoro-ethoxy)-phenyl]-5-thiophen-2-yl-3,4-dihydro-2H-quinolin-1-yl}-propan-2-ol]	39%		
C[C@@H](O)CN1c2cccc(-c3cccc(F)c3)c2CC[C@@H]1c1cccc(OC(F)(F)C(F)F)c1 [Compound 77, (αR,2R)-5-(3-Fluorophenyl)-3,4-dihydro-α-methyl-2-[3-(1,1,2,2-tetrafluoroethoxy)phenyl]-1(2H)-quinolineethanol]	48%	38%	
OC(CF)CN1c2cccc(-c3cccc(OC(F)(F)F)c3)c2CCC1c1cccc(OC(F)(F)F)c1 (stereo not shown) [Compound 49, 1-[2,5-Bis-(3-trifluoromethoxy-phenyl)-3,4-dihydro-2H-quinolin-1-yl]-3-fluoro-propan-2-ol]	63% and 77%		331 nM
OC(CN1c2cccc(Oc3cccc(Cl)c3Cl)c2CCC1c1cccc(OC(F)(F)C(F)F)c1)C(F)(F)F (stereo not shown) [Compound 86, 3-{5-(2,3-Dichloro-phenoxy)-2-[3-(1,1,2,2-tetrafluoro-ethoxy)-phenyl]-3,4-dihydro-2H-quinolin-1-yl}-1,1,1-trifluoro-propan-2-ol]		67%	
OC(CN1c2cccc(-c3ccc(OC(F)(F)F)cc3)c2CCC1c1cccc(OC(F)(F)C(F)F)c1)C(F)(F)F (stereo not shown) [Compound 8, 1,1,1-Trifluoro-3-[2-[3-(1,1,2,2-tetrafluoro-ethoxy)-phenyl]-5-(4-trifluoromethoxy-phenyl)-3,4-dihydro-2H-quinolin-1-yl]-propan-2-ol]	29% and 36%		
C[C@@H](O)CN1c2cccc(-c3cccc(F)c3)c2CC[C@@H]1c1cccc(OC(F)(F)F)c1 [Compound 55]	34%	39%	110 nM
C[C@@H](O)CN1c2cccc(-c3cccc(OC(F)(F)F)c3)c2CC[C@@H]1c1cccc(OC(F)(F)C(F)F)c1 [Compound 70, (αR,2R)-3,4-Dihydro-α-methyl-2-[3-(1,1,2,2-tetrafluoroethoxy)phenyl]-5-[3-(trifluoromethoxy)phenyl]-1(2H)-quinolineethanol]	69% and 59%	61%	63 nM and 39 nM
CC(C)c1cccc(-c2cccc3c2CCC(c2cccc(OC(F)(F)C(F)F)c2)N3CC(O)C(F)(F)F)c1 (stereo not shown) [Compound 67, 1,1,1-Trifluoro-3-{5-(3-isopropyl-phenyl)-2-[3-(1,1,2,2-tetrafluoro-ethoxy)-phenyl]-3,4-dihydro-2H-quinolin-1-yl}-propan-2-ol]	29%		
OC(CN1c2cccc(-c3cccc(OC(F)(F)F)c3)c2CCC1c1ccc(OC(F)(F)C(F)F)cc1)C(F)(F)F (stereo not shown) [Compound 21, 1,1,1-Trifluoro-3-[2-[4-(1,1,2,2-tetrafluoro-ethoxy)-phenyl]-5-(3-trifluoromethoxy-phenyl)-3,4-dihydro-2H-quinolin-1-yl]-propan-2-ol]	5%		
OC(CN1c2cccc(-c3cccc(F)c3)c2CCC1c1cccc(OC(F)(F)C(F)F)c1)C(F)(F)F (stereo not shown) [Compound 12, 1,1,1-Trifluoro-3-{5-(3-fluoro-phenyl)-2-[3-(1,1,2,2-tetrafluoro-ethoxy)-phenyl]-3,4-dihydro-2H-quinolin-1-yl}-propan-2-ol]	41% and 64%		
OC(CN1c2cccc(-c3cccc(Cl)c3)c2CCC1c1cccc(OC(F)(F)C(F)F)c1)C(F)(F)F (stereo not shown) [Compound 16, 3-{5-(3-Chloro-phenyl)-2-[3-(1,1,2,2-tetrafluoro-ethoxy)-phenyl]-3,4-dihydro-2H-quinolin-1-yl}-1,1,1-trifluoro-propan-2-ol]		55%	
OC(CN1c2cccc(-c3cccc(F)c3)c2CCC1c1cccc(OC(F)(F)C(F)F)c1)C(F)(F)F (stereo not shown) [Compound 11, 1,1,1-Trifluoro-3-{5-(3-fluoro-phenyl)-2-[3-(1,1,2,2-tetrafluoro-ethoxy)-phenyl]-3,4-dihydro-2H-quinolin-1-yl}-propan-2-ol]	101% and 99% and 79%		70 nM and 95 nM and 187 nM
OC(CN1c2cccc(-c3cccc(OC(F)(F)F)c3)c2CCC1C1CCCCC1)C(F)(F)F (stereo not shown) [Compound 38, 3-[2-Cyclohexyl-5-(3-trifluoromethoxy-phenyl)-3,4-dihydro-2H-quinolin-1-yl]-1,1,1-trifluoro-propan-2-ol]	2%		
COC[C@@H](O)CN1c2cccc(-c3cccc(OC(F)(F)F)c3)c2CC[C@@H]1c1cccc(OC(F)(F)F)c1 [Compound 51]		13%	
OC(CN1c2cccc(-c3cccc(OC(F)(F)F)c3)c2CCC1c1ccccc1)C(F)(F)F (stereo not shown) [Compound 20, 1,1,1-Trifluoro-3-[2-phenyl-5-(3-trifluoromethoxy-phenyl)-3,4-dihydro-2H-quinolin-1-yl]-propan-2-ol]	6%		
COc1cccc(-c2cccc3c2CC[C@H](c2cccc(OC(F)(F)F)c2)N3C[C@H](O)C(F)(F)F)c1 [Compound 59]		30%	
OC(CN1c2cccc(-c3cccc(OC(F)(F)F)c3)c2CCC1c1cccc(OC(F)(F)C(F)F)c1)C(F)(F)F (single isomer, unassigned) [Compound 1, 1,1,1-Trifluoro-3-[2-[3-(1,1,2,2-tetrafluoro-ethoxy)-phenyl]-5-(3-trifluoromethoxy-phenyl)-3,4-dihydro-2H-quinolin-1-yl]-propan-2-ol]		100%	7 nM and 25 nM and 30 nM
OC(CN1c2cccc(-c3cccnc3)c2CCC1c1cccc(OC(F)(F)C(F)F)c1)C(F)(F)F (stereo not shown) [Compound 76, 1,1,1-Trifluoro-3-{5-pyridin-3-yl-2-[3-(1,1,2,2-tetrafluoro-ethoxy)-phenyl]-3,4-dihydro-2H-quinolin-1-yl}-propan-2-ol]	38%	57%	
COC[C@@H](O)CN1c2cccc(-c3cccc(OC(F)(F)F)c3)c2CC[C@H]1c1cccc(OC(F)(F)F)c1 [Compound 52]		0%	
OC(CN1c2cccc(-c3ccsc3)c2CCC1c1cccc(OC(F)(F)C(F)F)c1)C(F)(F)F (stereo not shown) [Compound 64, 1,1,1-Trifluoro-3-{2-[3-(1,1,2,2-tetrafluoro-ethoxy)-phenyl]-5-thiophen-3-yl-3,4-dihydro-2H-quinolin-1-yl}-propan-2-ol]	61% and 70% and 78%		300 nM
OC(CN1c2cccc(-c3cccc(OC(F)(F)F)c3)c2CCC1c1cccc(OC(F)(F)F)c1)C(F)(F)F (stereo not shown) [Compound 31, 3-[2,5-Bis-(3-trifluoromethoxy-phenyl)-3,4-dihydro-2H-quinolin-1-yl]-1,1,1-trifluoro-propan-2-ol]	77% and 72% and 67% and 66% and 62%		150 nM and 100 nM
OC(CN1c2cccc(-c3ccc(C(F)(F)F)cc3)c2CCC1c1cccc(OC(F)(F)C(F)F)c1)C(F)(F)F (stereo not shown) [Compound 4, 1,1,1-Trifluoro-3-[2-[3-(1,1,2,2-tetrafluoro-ethoxy)-phenyl]-5-(4-trifluoromethyl-phenyl)-3,4-dihydro-2H-quinolin-1-yl]-propan-2-ol]	1%		
